Measurements published in patent US7217730B2, “Method for the use of pyranoindole derivatives to treat infection with Hepatitis C virus” (Wyeth, priority 2002, dated 2007).

Target: T1, NS5B from the BK strain (genotype 1b) (Hepatitis C virus genotype 1b, UniProt P26663)
T1 construct: NS5B from the BK strain (genotype 1b) is expressed in E. coli as a protein in which the 21 C-terminal amino acids are replaced; made in house; host or cells: E. coli
Assay: Hepatitis C polymerase inhibition, NS5B BK strain, 33P-GTP filter assay
Assay type: biochemical
Details: Table 1A; for inhibition at 20 µM: 20 μM compound, read-out: HCV pol % inh at 20 μM; for IC50: NS5B BK strain, read-out: HCV pol BK IC50
Outline: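 E. coli-expressed NS5B (BK, genotype 1b) with the 21 C-terminal residues replaced by a linker-His6 tag was preincubated with compound for 15 min at room temperature. It then extended a hairpin-primed heteropolymeric RNA (~3 nM, ~760 nt product) with α-[33P]-GTP for 2 h at 22–25° C. The reaction was stopped with EDTA, and incorporated label was counted on filters.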

T1 sequence (P26663 2420-2989): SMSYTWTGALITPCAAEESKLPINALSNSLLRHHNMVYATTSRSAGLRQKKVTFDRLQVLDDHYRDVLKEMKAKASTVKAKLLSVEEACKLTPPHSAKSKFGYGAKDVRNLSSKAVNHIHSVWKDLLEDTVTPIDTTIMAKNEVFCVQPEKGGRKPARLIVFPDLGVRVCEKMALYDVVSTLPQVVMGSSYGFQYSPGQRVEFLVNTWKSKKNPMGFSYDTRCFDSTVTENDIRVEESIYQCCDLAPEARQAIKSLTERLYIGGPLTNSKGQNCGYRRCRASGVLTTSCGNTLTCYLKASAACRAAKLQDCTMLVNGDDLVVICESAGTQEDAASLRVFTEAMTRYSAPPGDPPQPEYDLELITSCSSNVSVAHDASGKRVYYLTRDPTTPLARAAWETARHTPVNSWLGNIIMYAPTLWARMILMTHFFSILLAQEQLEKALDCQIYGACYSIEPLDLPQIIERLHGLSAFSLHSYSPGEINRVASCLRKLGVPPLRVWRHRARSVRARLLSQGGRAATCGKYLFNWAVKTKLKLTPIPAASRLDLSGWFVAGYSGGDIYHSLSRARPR

| SMILES | inhibition at 20 µM | IC50 |
| --- | --- | --- |
| CCCC1(CC(=O)O)OCCc2c1[nH]c1c(F)ccc(-c3cccc(N)c3)c21 (centres unmarked) [Example 151, [5-(3-aminophenyl)-8-fluoro-1-propyl-1,3,4,9-tetrahydropyrano[3,4-b]indol-1-yl]acetic acid] | 34% | > 20000 nM |
| CCCC1(CC(=O)O)OCCc2c1[nH]c1c(F)ccc(Br)c21 (centres unmarked) [Example 152, (5-bromo-8-fluoro-1-propyl-1,3,4,9-tetrahydropyrano[3,4-b]indol-1-yl)acetic acid] | 87% | 1000 nM |
| CCCC1(CC(=O)O)OCCc2c1[nH]c1c(C)ccc(Br)c21 (centres unmarked) [Example 153, (5-bromo-8-methyl-1-propyl-1,3,4,9-tetrahydropyrano[3,4-b]indol-1-yl)acetic acid] | 93% | 300 nM |
| CC1(CC(=O)O)OCCc2c1[nH]c1c(Cl)cc(Cl)c(Cl)c21 (centres unmarked) [Example 154, (5,6,8-trichloro-1-methyl-1,3,4,9-tetrahydropyrano[3,4-b]indol-1-yl)acetic acid] | 22% | 22400 nM |
| CCC1(CC(=O)O)OCCc2c1[nH]c1c(Cl)cc(Cl)c(Cl)c21 (centres unmarked) [Example 155, (5,6,8-trichloro-1-ethyl-1,3,4,9-tetrahydropyrano[3,4-b]indol-1-yl)acetic acid] | 84% | 470 nM |
| CCCC1(CC(=O)O)OCCc2c1[nH]c1c(Cl)cc(Cl)c(Cl)c21 (centres unmarked) [Example 156, (5,6,8-trichloro-1-propyl-1,3,4,9-tetrahydropyrano[3,4-b]indol-1-yl)acetic acid] | 88% | 80 nM |
| CC(C)C1(CC(=O)O)OCCc2c1[nH]c1c(Cl)cc(Cl)c(Cl)c21 (centres unmarked) [Example 157, (5,6,8-trichloro-1-isopropyl-1,3,4,9-tetrahydropyrano[3,4-b]indol-1-yl)acetic acid] | 89% | 600 nM |
| CCCCC1(CC(=O)O)OCCc2c1[nH]c1c(Cl)cc(Cl)c(Cl)c21 (centres unmarked) [Example 158, (1-butyl-5,6,8-trichloro-1,3,4,9-tetrahydropyrano[3,4-b]indol-1-yl)acetic acid] | 91% | 280 nM |
| C/C=C/CCC1(CC(=O)O)OCCc2c1[nH]c1c(Cl)cc(Cl)c(Cl)c21 (centres unmarked) [Example 159, {5,6,8-trichloro-1-[(3E)-pent-3-enyl]-1,3,4,9-tetrahydropyrano[3,4-b]indol-1-yl}acetic acid] | 36% | > 20000 nM |
| O=C(O)CC1(c2ccccc2)OCCc2c1[nH]c1c(Cl)cc(Cl)c(Cl)c21 (centres unmarked) [Example 160, (5,6,8-trichloro-1-phenyl-1,3,4,9-tetrahydropyrano[3,4-b]indol-1-yl)acetic acid] | 15% | > 20000 nM |
| O=C(O)CC1(c2ccc(C(=O)O)cc2)OCCc2c1[nH]c1c(Cl)cc(Cl)c(Cl)c21 (centres unmarked) [Example 161, 4-[1-(carboxymethyl)-5,6,8-trichloro-1,3,4,9-tetrahydropyrano[3,4-b]indol-1-yl]benzoic acid] | 74% | 300 nM |
| O=C(O)CC1(c2ccoc2)OCCc2c1[nH]c1c(Cl)cc(Cl)c(Cl)c21 (centres unmarked) [Example 162, [5,6,8-trichloro-1-(3-furyl)-1,3,4,9-tetrahydropyrano[3,4-b]indol-1-yl]acetic acid] | 73% | 2400 nM |
| CCC1(CC(=O)O)OCCc2c1[nH]c1c(F)cc(C)c(Br)c21 (centres unmarked) [Example 164, (5-bromo-1-ethyl-8-fluoro-6-methyl-1,3,4,9-tetrahydropyrano[3,4-b]indol-1-yl)acetic acid] | 77% | 2000 nM |
| CCCC1(CC(=O)O)OCCc2c1[nH]c1c(F)cc(C)c(Br)c21 (centres unmarked) [Example 165, (5-bromo-8-fluoro-6-methyl-1-propyl-1,3,4,9-tetrahydropyrano[3,4-b]indol-1-yl)acetic acid] | 89% | 600 nM |
| Cc1cc(F)c2[nH]c3c(c2c1Br)CCOC3(CC(=O)O)C(C)C (centres unmarked) [Example 166, (5-bromo-8-fluoro-1-isopropyl-6-methyl-1,3,4,9-tetrahydropyrano[3,4-b]indol-1-yl)acetic acid] | 55% | 3700 nM |
| CCCCC1(CC(=O)O)OCCc2c1[nH]c1c(F)cc(C)c(Br)c21 (centres unmarked) [Example 167, (5-bromo-1-butyl-8-fluoro-6-methyl-1,3,4,9-tetrahydropyrano[3,4-b]indol-1-yl)acetic acid] | 80% | 3000 nM |
| Cc1cc(F)c2[nH]c3c(c2c1Br)CCOC3(CC(=O)O)c1ccccc1 (centres unmarked) [Example 168, (5-bromo-8-fluoro-6-methyl-1-phenyl-1,3,4,9-tetrahydropyrano[3,4-b]indol-1-yl)acetic acid] | 4% | > 10000 nM |

| SMILES | inhibition at 20 µM | IC50 |
| --- | --- | --- |
| Cc1cc(F)c2[nH]c3c(c2c1Br)CCOC3(CC(=O)O)c1ccc(C(=O)O)cc1 (centres unmarked) [Example 169, 4-[5-bromo-1-(carboxymethyl)-8-fluoro-6-methyl-1,3,4,9-tetrahydropyrano[3,4-b]indol-1-yl]benzoic acid] | 82% | 220 nM |
| CCCCC1(CC(=O)O)OCCc2c1[nH]c1c(F)cc(C)c(C#N)c21 (centres unmarked) [Example 170, (1-butyl-5-cyano-8-fluoro-6-methyl-1,3,4,9-tetrahydropyrano[3,4-b]indol-1-yl)acetic acid] | 53% | 1000 nM |
| Cc1cc(F)c2[nH]c3c(c2c1C#N)CCOC3(CC(=O)O)c1ccccc1 (centres unmarked) [Example 171, (5-cyano-8-fluoro-6-methyl-1-phenyl-1,3,4,9-tetrahydropyrano[3,4-b]indol-1-yl)acetic acid] | 3% | > 10000 nM |
| Cc1cc(F)c2[nH]c3c(c2c1C#N)CCOC3(CC(=O)O)c1ccc(C(=O)O)cc1 (centres unmarked) [Example 172, 4-[1-(carboxymethyl)-5-cyano-8-fluoro-6-methyl-1,3,4,9-tetrahydropyrano[3,4-b]indol-1-yl]benzoic acid] | 74% | 1700 nM |
| Cc1cc(Cl)c2[nH]c3c(c2c1Br)CCOC3(C)CC(=O)O (centres unmarked) [Example 173, (5-bromo-8-chloro-1,6-dimethyl-1,3,4,9-tetrahydropyrano[3,4-b]indol-1-yl)acetic acid] | 19% | > 5000 nM |
| CCC1(CC(=O)O)OCCc2c1[nH]c1c(Cl)cc(C)c(Br)c21 (centres unmarked) [Example 174, (5-bromo-8-chloro-1-ethyl-6-methyl-1,3,4,9-tetrahydropyrano[3,4-b]indol-1-yl)acetic acid] | 70% | > 5000 nM |
| CCCC1(CC(=O)O)OCCc2c1[nH]c1c(Cl)cc(C)c(Br)c21 (centres unmarked) [Example 175, (5-bromo-8-chloro-6-methyl-1-propyl-1,3,4,9-tetrahydropyrano[3,4-b]indol-1-yl)acetic acid] | 84% | 500 nM |
| Cc1cc(Cl)c2[nH]c3c(c2c1Br)CCOC3(CC(=O)O)C(C)C (centres unmarked) [Example 176, (5-bromo-8-chloro-1-isopropyl-6-methyl-1,3,4,9-tetrahydropyrano[3,4-b]indol-1-yl)acetic acid] | 49% | > 5000 nM |
| CCCCC1(CC(=O)O)OCCc2c1[nH]c1c(Cl)cc(C)c(Br)c21 (centres unmarked) [Example 177, (5-bromo-1-butyl-8-chloro-6-methyl-1,3,4,9-tetrahydropyrano[3,4-b]indol-1-yl)acetic acid] | 70% | 4000 nM |
| C/C=C/CCC1(CC(=O)O)OCCc2c1[nH]c1c(Cl)cc(C)c(Br)c21 (centres unmarked) [Example 178, {5-bromo-8-chloro-6-methyl-1-[(3E)-pent-3-enyl]-1,3,4,9-tetrahydropyrano[3,4-b]indol-1-yl}acetic acid] | < 32% | > 5000 nM |
| Cc1cc(Cl)c2[nH]c3c(c2c1Br)CCOC3(CC(=O)O)c1ccccc1 (centres unmarked) [Example 179, (5-bromo-8-chloro-6-methyl-1-phenyl-1,3,4,9-tetrahydropyrano[3,4-b]indol-1-yl)acetic acid] | 15% | > 5000 nM |
| Cc1cc(Cl)c2[nH]c3c(c2c1Br)CCOC3(CC(=O)O)c1ccc(C(=O)O)cc1 (centres unmarked) [Example 180, 4-[5-bromo-1-(carboxymethyl)-8-chloro-6-methyl-1,3,4,9-tetrahydropyrano[3,4-b]indol-1-yl]benzoic acid] | 92% | 810 nM |
| Cc1cc(Cl)c2[nH]c3c(c2c1C#N)CCOC3(C)CC(=O)O (centres unmarked) [Example 181, (8-chloro-5-cyano-1,6-dimethyl-1,3,4,9-tetrahydropyrano[3,4-b]indol-1-yl)acetic acid] | 14% | > 5000 nM |
| CCC1(CC(=O)O)OCCc2c1[nH]c1c(Cl)cc(C)c(C#N)c21 (centres unmarked) [Example 182, (8-chloro-5-cyano-1-ethyl-6-methyl-1,3,4,9-tetrahydropyrano[3,4-b]indol-1-yl)acetic acid] | 55% | > 5000 nM |
| CCCC1(CC(=O)O)OCCc2c1[nH]c1c(Cl)cc(C)c(C#N)c21 (centres unmarked) [Example 183, (8-chloro-5-cyano-6-methyl-1-propyl-1,3,4,9-tetrahydropyrano[3,4-b]indol-1-yl)acetic acid] | 88% | 590 nM |
| Cc1cc(Cl)c2[nH]c3c(c2c1C#N)CCOC3(CC(=O)O)C(C)C (centres unmarked) [Example 184, (8-chloro-5-cyano-1-isopropyl-6-methyl-1,3,4,9-tetrahydropyrano[3,4-b]indol-1-yl)acetic acid] | 39% | > 5000 nM |
| CCCCC1(CC(=O)O)OCCc2c1[nH]c1c(Cl)cc(C)c(C#N)c21 (centres unmarked) [Example 185, (1-butyl-8-chloro-5-cyano-6-methyl-1,3,4,9-tetrahydropyrano[3,4-b]indol-1-yl)acetic acid] | 69% | 4000 nM |
